Patent US20130096156A1 (priority 2010, published 2013)
Like-named read-outs stand apart in the source and are kept apart here.

Experiments:
[1] = tested on: Blumeria graminis f. sp. tritici (Erysiphe graminis f. sp. tritici); test: Blumeria graminis f. sp. tritici / wheat / leaf disc preventative (powdery mildew on wheat); assay type: in vivo; settings: foliar, wheat leaf segments cv. Kanzler, inoculated 1 day after application, assessed 6-8 days after application, read-out: inhibit fungal infestation (percent disease control compared to untreated)
Experimental: Leaf disks of various plant species (diameter 14 mm) are cut from plants grown in the greenhouse. The cut leaf disks are placed in multiwell plates (24-well format) onto water agar. Immediately after cutting the leaf disks are sprayed with a test solution.
Compounds to be tested are prepared as DMSO solutions (max. 10 mg/ml). Just before spraying the solutions are diluted to the appropriate concentrations with 0.025% Tween20. After drying, the leaf disks are inoculated with a spore suspension of the appropriate pathogenic fungus.
After an incubation time of 3-7 days after inoculation at defined conditions (temp, rH, light, etc.) according to the respective test system, the activity of the test compound is assessed as antifungal activity.
Wheat leaf segments cv. Kanzler are placed on agar in a multiwell plate (24-well format) and sprayed with the formulated test compound diluted in water. The leaf disks are inoculated by shaking powdery mildew infected plants above the test plates 1 day after application. The inoculated leaf disks are incubated at 20° C. and 60% rh under a light regime of 24 h darkness followed by 12 h light/12 h darkness in a climate chamber and the activity of a compound is assessed as percent disease control compared to untreated when an appropriate level of disease damage appears on untreated check leaf segments (6-8 days after application).

Pythium ultimum = Pythium ultimum / liquid culture (seedling damping off); assay type: cell-based; settings: Globisporangium ultimum, liquid culture in PDB, 24° C., 2-3 days after application, read-out: inhibit fungal infestation (inhibition of growth determined photometrically)
Experimental: Mycelia fragments or conidia suspensions of a fungus, prepared either freshly from liquid cultures of the fungus or from cryogenic storage, are directly mixed into nutrient broth. DMSO solutions of the test compound (max. 10 mg/ml) is diluted with 0.025% Tween20 by factor 50 and 10 μl of this solution is pipetted into a microtiter plate (96-well format) and the nutrient broth containing the fungal spores/mycelia fragments is then added to give an end concentration of the tested compound. The test plates are incubated at 24° C. and 96% rH in the dark. The inhibition of fungal growth is determined photometrically after 2-6 days and antifungal activity is calculated.
Mycelia fragments and oospores of a newly grown liquid culture of the fungus are directly mixed into nutrient broth (PDB potato dextrose broth). After placing a (DMSO) solution of test compound into a microtiter plate (96-well format), the nutrient broth containing the fungal mycelia/spore mixture is added. The test plates are incubated at 24° C. and the inhibition of growth is determined photometrically 2-3 days after application.

Phytophthora infestans = test: whole plant or invertebrate; assay type: in vivo; settings: in Solanum lycopersicum, foliar, read-out: inhibit fungal infestation (percent disease control compared to untreated)

| SMILES | melting point | inhibition at 200 ppm [1] | inhibition at 200 ppm (Pythium ultimum) | inhibition at 200 ppm (Phytophthora infestans) | inhibition at 200 ppm ([1]; in Triticum aestivum) |
| --- | --- | --- | --- | --- | --- |
| CCc1cnc2c(Cl)cc(OC(SC)C(=O)NC3CCC3)cc2c1 (stereo not shown) | 154 to 156 °C |  |  |  |  |
| CC#CC(C)(C)NC(=O)C(Oc1cc(Cl)c2ncc(CC)cc2c1)SC (stereo not shown) | 186 to 188 °C |  |  |  |  |
| C=Cc1cnc2c(Cl)cc(OC(CC)C(=O)NC(C)(C)C)cc2c1 (stereo not shown) | 100 to 102 °C |  |  |  |  |
| C=Cc1cnc2c(Cl)cc(OC(SC)C(=O)NC(C)(C)C#N)cc2c1 (stereo not shown) | 138 to 141 °C |  |  |  |  |
| CSC(Oc1ccc2ncc(C)cc2c1)C(=O)NC(C)(C)C (stereo not shown) [Compound 1, N-tert-Butyl-2-(3-methyl-quinolin-6-yloxy)-2-methylsulfanyl-acetamide] | 126 to 127 °C | ≥ 80% | ≥ 80% | ≥ 80% |  |
| COCC#CC(C)(C)NC(=O)C(Oc1ccc2ncc(C)cc2c1)SC (stereo not shown) [Compound 4, N-(4-Methoxy-1,1-dimethyl-but-2-ynyl)-2-(3-methyl-quinolin-6-yloxy)-2-methylsulfanyl-acetamide] | 100 to 102 °C | ≥ 80% | ≥ 80% | ≥ 80% |  |
| CCC(C)(C)NC(=O)C(Oc1ccc2ncc(C)cc2c1)SC (stereo not shown) [Compound 5, N-(1,1-Dimethyl-propyl)-2-(3-methyl-quinolin-6-yloxy)-2-methylsulfanyl-acetamide] | 103 to 104 °C |  | ≥ 80% | ≥ 80% |  |
| COCC(C)(C#N)NC(=O)C(Oc1cc(C)c2ncc(C)cc2c1)SC (stereo not shown) [Compound 11, N-(1-Cyano-2-methoxy-1-methyl-ethyl)-2-(3,8-dimethyl-quinolin-6-yloxy)-2-methylsulfanyl-acetamide] | 115 to 117 °C | ≥ 80% | ≥ 80% |  |  |
| CCc1cnc2ccc(OC(CC)C(=O)NC(C)(C)C#CCOC)cc2c1 (stereo not shown) [Compound 29, 2-(3-Ethyl-quinolin-6-yloxy)-N-(4-methoxy-1,1-dimethyl-but-2-ynyl)-butyramide] | 99 to 101 °C | ≥ 80% | ≥ 80% | ≥ 80% |  |
| CCc1cnc2ccc(OC(CC)C(=O)NC3(C)CCC3)cc2c1 (stereo not shown) [Compound 30, 2-(3-Ethyl-quinolin-6-yloxy)-N-(1-methyl-cyclobutyl)-butyramide] | 110 to 112 °C | ≥ 80% | ≥ 80% | ≥ 80% |  |
| CCc1cnc2ccc(OC(CC)C(=O)NC(C)(C)/C=N/OC)cc2c1 (stereo not shown) [Compound 31] | 125 to 127 °C |  | ≥ 80% | ≥ 80% | ≥ 80% |
| CCc1cnc2ccc(OC(CC)C(=O)NC(C)(C#N)COC)cc2c1 (stereo not shown) [Compound 32, N-(1-Cyano-2-methoxy-1-methyl-ethyl)-2-(3-ethyl-quinolin-6-yloxy)-butyramide] | 114 to 117 °C | ≥ 80% |  |  |  |
| C=Cc1cnc2c(F)cc(OC(SC)C(=O)NC(C)CC)cc2c1 (stereo not shown) [Compound 38, N-sec-Butyl-2-(8-fluoro-3-vinyl-quinolin-6-yloxy)-2-methylsulfanyl-acetamide] | 110 to 112 °C | ≥ 80% | ≥ 80% |  |  |
| C=Cc1cnc2ccc(OC(CC)C(=O)NC(C)(C#N)COC)cc2c1 (stereo not shown) [Compound 39, N-(1-Cyano-2-methoxy-1-methyl-ethyl)-2-(3-vinyl-quinolin-6-yloxy)-butyramide] | 120 to 125 °C | ≥ 80% | ≥ 80% |  |  |
| C=Cc1cnc2c(Cl)cc(OC(OC)C(=O)NC(C)C)cc2c1 (stereo not shown) [Compound 40, 2-(8-Chloro-3-vinyl-quinolin-6-yloxy)-N-iso-propyl-2-methoxy-acetamide] | 108 to 112 °C | ≥ 80% |  |  |  |
